Experimental data published in patent publication US9902986B2, “Enterobactin conjugates and uses thereof” (Massachusetts Institute of Technology, priority 2013, dated 2018).

Tested on: E. coli ATCC 33475 (ent-)
Assay type: cell-based, Escherichia coli
Method: General microbiology methods are as described herein or according to processes known in the art. […] Bacterial growth was assayed by measuring OD600 using a BioTek Synergy HT plate reader. Each well condition was prepared in duplicate and three independent replicates of each assay were conducted on different days. The resulting mean OD600 are reported and the error bars are the standard deviation of the mean obtained from the three independent replicates.
Three non-pathogenic E. coli strains were employed that are defective in enterobactin synthesis, enterobactin transport, or ferric enterobactin utilization in growth recovery assays. E. coli ATCC 33475 (ent-) cannot biosynthesize enterobactin, but retains the capacity to import and metabolize the siderophore.^71 E. coli H1187 (fepA-) lacks the outer membrane enterobactin receptor. E. coli K-12 JW0576 (fes-) can accumulate ferric enterobactin, but cannot release the iron because it is deficient in the enterobactin esterase Fes. As a result of these defects in iron metabolism, all three strains grow poorly under conditions of iron limitation.^71 The iron chelator 2,2′-dipyridyl (dipyridyl, DP) was used to generate iron-deficient conditions and promote expression of siderophore transport machinery in the growth recovery assays.

O=C(NCCOCCOCCOCCNC(=O)c1cc2cc3c4c(c2oc1=O)CCCN4CCC3)c1cc(O)c(O)c(C(=O)N[C@H]2COC(=O)[C@@H](NC(=O)c3cccc(O)c3O)COC(=O)[C@@H](NC(=O)c3cccc(O)c3O)COC2=O)c1 [conjugate 34, N^3-((3S,7S,11S)-7,11-Bis(2,3-dihydroxybenzamido)-2,6,10-trioxo-1,5,9-trioxacyclododecan-3-yl)-4,5-dihydroxy-N^1-(1-oxo-1-(11-oxo-2,3,5,6,7,1-hexahydro-1H-pyrano[2,3-f]pyrido[3,2,1-ij]quinolin-10-yl)-5,8,11-trioxa-2-azatridecan-13-yl)isophthalamide]
toxicity to E. coli (under iron limitation): no toxicity

O=C(NCCOCCOCCOCCC(=O)N1CCN(c2cc3c(cc2F)c(=O)c(C(=O)O)cn3C2CC2)CC1)c1cc(O)c(O)c(C(=O)N[C@H]2COC(=O)[C@@H](NC(=O)c3cccc(O)c3O)COC(=O)[C@@H](NC(=O)c3cccc(O)c3O)COC2=O)c1 [conjugate 35, 7-(4-(1-(3-(((3S,7S,11S)-7,11-Bis(2,3-dihydroxybenzamido)-2,6,10-trioxo-1,5,9-trioxacyclododecan-3-yl)carbamoyl)-4,5-dihydroxyphenyl)-1-oxo-5,8,11-trioxa-2-azatetradecan-14-oyl)piperazin-1-yl)-1-cyclopropyl-6-fluoro-4-oxo-1,4-dihydroquinoline-3-carboxylic acid]
effect on E. coli growth in the absence of DP: concentration-dependent inhibition of E. coli growth

O=C(NCCCCCC(=O)N1CCN(c2cc3c(cc2F)c(=O)c(C(=O)O)cn3C2CC2)CC1)c1cc(O)c(O)c(C(=O)N[C@H]2COC(=O)[C@@H](NC(=O)c3cccc(O)c3O)COC(=O)[C@@H](NC(=O)c3cccc(O)c3O)COC2=O)c1 [conjugate 40, 7-(4-(6-(3-(((3S,7S,11S)-7,11-Bis(2,3-dihydroxybenzamido)-2,6,10-trioxo-1,5,9-trioxacyclododecan-3-yl)carbamoyl)-4,5-dihydroxybenzamido)hexanoyl)piperazin-yl)-1-cyclopropyl-6-fluoro-4-oxo-1,4-dihydroquinoline-3-carboxylic acid]
effect on E. coli growth in the absence of DP: concentration-dependent inhibition of E. coli growth

CN[C@H](CC(C)C)C(=O)N[C@H]1C(=O)N[C@@H](CC(N)=O)C(=O)N[C@H]2C(=O)N[C@H]3C(=O)N[C@H](C(=O)N[C@H](C(=O)O)c4cc(O)cc(O)c4-c4cc3ccc4O)[C@H](O)c3ccc(c(Cl)c3)Oc3cc2cc(c3O[C@@H]2OC(CO)[C@@H](O)C(O)C2O[C@H]2CC(C)(N)[C@H](O)C(C)O2)Oc2ccc(cc2Cl)[C@H]1O (stereo partly shown) [vancomycin, reference compound]
activity against E. coli (over the concentration range employed): inactive against E. coli
